For orientation: Kd means the concentration at which binding is half-saturated. High values mean a looser complex, low ones a tighter complex.

One experiment has as its target T1, RqpR.
T1 construct: HIS-RqpR fusion protein (pDBHT2), cleaved with TEV protease
As to the kind of experiment: ITC with purified protein (one-site model); EMSA shows inhibited binding to rpfFBC and cepI promoters. Also noted: species or system Burkholderia cenocepacia.

In another experiment the target is T2, CepR (Burkholderia cenocepacia, UniProt B4EMD0).
T2 construct: HIS-CepR fusion protein (pDBHT2), cleaved with TEV protease
Put plainly: ITC with purified protein (one-site model); EMSA shows inhibited binding to bclACB promoter.

T2 sequence (B4EMD0 entry or part of it): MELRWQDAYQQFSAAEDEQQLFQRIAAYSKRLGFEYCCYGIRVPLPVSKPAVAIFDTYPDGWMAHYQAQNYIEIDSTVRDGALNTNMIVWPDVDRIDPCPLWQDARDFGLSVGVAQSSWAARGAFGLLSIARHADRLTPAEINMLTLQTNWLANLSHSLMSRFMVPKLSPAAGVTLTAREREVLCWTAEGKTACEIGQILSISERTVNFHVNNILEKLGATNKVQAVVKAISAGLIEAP

Take `C=C1C(=O)[C@]23[C@H](O)[C@H]1CC[C@H]2[C@@]12CO[C@]3(O)[C@@H](O)[C@@H]1C(C)(C)CC[C@@H]2O` [oridonin]: the Kd at RqpR came out at 8.28 ± 0.895 µM; on CepR, 13.6 ± 0.826 µM.

The values are drawn from paper PMC9430380, “Oridonin Attenuates Burkholderia cenocepacia Virulence by Suppressing Quorum-Sensing Signaling” (Microbiology Spectrum, 2022).
